In patent publication US20240254129A1, “HETEROCYCLIC COMPOUNDS AND USES THEREOF” (Kumquat Biosciences Inc., priority 2021, published 2024):
Where two headings read alike, the source gives them in different places.

Columns and labels:
[1] = target: GST-tagged K-Ras mutant / His-tagged hSOS1 (Homo sapiens, UniProt P01116); experiment: HTRF assay, K-Ras mutant / SOS1 interaction; type: binding; details: read-out: IC50 against mutant Kras
How it was run: (§1)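 HTRF read-out (ex 337, em 620 and 665 nm) of Ras–SOS1 equilibrium binding: Eu-anti-GST on GST-K-Ras, XL665-anti-6His on His-hSOS1. Incubation about 10 min or longer; IC50 fitted from emission ratio, compounds in duplicate at 10 μM down to 0.01 μM.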

[2] = target: T1, wildtype Kras / hSOS1 (Homo sapiens, UniProt P01116); experiment: HTRF assay, wildtype Kras / SOS1 interaction; type: binding; details: read-out: IC50 against wildtype Kras
T1 construct: made in house; host or cells: E. coli BL21 (DE3)
T1 sequence (P01116 1-188 isoform P01116-2): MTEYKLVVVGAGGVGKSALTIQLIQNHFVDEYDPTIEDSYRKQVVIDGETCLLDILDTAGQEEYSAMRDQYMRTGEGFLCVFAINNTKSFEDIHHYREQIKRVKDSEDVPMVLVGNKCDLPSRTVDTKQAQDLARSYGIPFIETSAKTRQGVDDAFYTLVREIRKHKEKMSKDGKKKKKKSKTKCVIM
How it was run: as §1

[3] = compound nos. 102-196, general methodology of example 5

GST-tagged K-Ras mutant / His-tagged hSOS1, sequence (P01116 whole entry G12D, form open): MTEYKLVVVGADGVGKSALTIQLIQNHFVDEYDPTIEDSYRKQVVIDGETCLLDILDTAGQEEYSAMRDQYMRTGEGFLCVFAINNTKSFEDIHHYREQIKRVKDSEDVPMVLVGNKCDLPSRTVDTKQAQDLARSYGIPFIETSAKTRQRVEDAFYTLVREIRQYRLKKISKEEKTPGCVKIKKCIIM

Row | Compound | IC50 [1, 3] [µM] | IC50 [2, 3] [µM] | IC50 ([1]; compound nos. 401-703) [µM] | IC50 ([2]; compound nos. 401-703) [µM]
1 | CO[C@H]1C[C@@H](COc2nc(N3CCNCC(F)(F)C3)c3cc(Cl)c(-c4cccc5sc(N)nc45)c(F)c3n2)N(C)C1 [Compound 126, 4-(6-chloro-4-(6,6-difluoro-1,4-diazepan-1-yl)-8-fluoro-2-(((2S,4S)-4-methoxy-1-methylpyrrolidin-2-yl)-methoxy)quinazolin-7-yl)-benzo[d]thiazol-2-amine] | > 0.5 | < 0.5 |  | 
2 | Cc1ccc2cnn(C)c2c1-c1c(Cl)cc2c(N3CCNCC(F)(F)C3)nc(OC[C@@]34CCCN3C[C@H](F)C4)nc2c1F [Compound 175, 6-chloro-4-(6,6-difluoro-1,4-diazepan-1-yl)-7-(1,6-dimethyl-1H-indazol-7-yl)-8-fluoro-2-(((2R,7aS)-2-fluorotetrahydro-1H-pyrrolizin-7a(5H)-yl)meth-oxy)quinazoline] | < 0.5 | < 0.5 |  | 
3 | COC1CCCCN(c2nc(OC[C@@H]3CCCN3C)nc3c(F)c(-c4cccc5sc(N)nc45)c(Cl)cc23)C1 (stereo partly drawn) [Compound 524, 4-(6-chloro-8-fluoro-4-(3-methoxyazepan-1-yl)-2-(((S)-1-methylpyrrolidin-2-yl)methoxy)quinazolin-7-yl)benzo[d]thiazol-2-amine] |  |  | < 0.5 | > 0.5
4 | Cc1cc2[nH]ncc2c(-c2c(Cl)cc3c(N4CC5CCC(C4)N5)nc(OC[C@@]45CCCN4C[C@H](F)C5)nc3c2F)c1Cl [Compound 425, 4-(3,8-diazabicyclo[3.2.1]-octan-3-yl)-6-chloro-7-(5-chloro-6-methyl-1H-indazol-4-yl)-8-fluoro-2-(((2R,7aS)-2-fluorotetrahydro-1H-pyrrolizin-7a(5H)-yl)meth-oxy)quinazoline] |  |  | > 0.5 | < 0.5
5 | Nc1nc2cc(-c3c(Cl)cc4c(N5CC6CCC(C5)N6)nc(OCC56CCCN5CCC6)nc4c3F)ccc2o1 [Compound 502, 5-(4-(3,8-diazabicyclo-[3.2.1]octan-3-yl)-6-chloro-8-fluoro-2-((tetrahydro-1H-pyrrolizin-7a(5H)-yl)meth-oxy)quinazolin-7-yl)benzo-[d]oxazol-2-amine] |  |  | > 0.5 | > 0.5
6 | CN1CCC[C@H]1COc1nc(N2CCOCC(F)(F)C2)c2cc(Cl)c(-c3ccc(F)c4sc(N)nc34)c(F)c2n1 [Compound 106, 4-(6-chloro-4-(6,6-difluoro-1,4-oxazepan-4-yl)-8-fluoro-2-(((S)-1-methylpyrrolidin-2-yl)methoxy)quinazolin-7-yl)-7-fluorobenzo[d]thiazol-2-amine] | < 0.5 | < 0.5 |  | 
7 | Nc1nc2c(-c3c(Cl)cc4c(N5CCC[C@@H](O)CC5)nc(OC[C@@]56CCCN5C[C@H](F)C6)nc4c3F)ccc(F)c2s1 [Compound 480, (4R)-1-(7-(2-amino-7-fluorobenzo[d]thiazol-4-yl)-6-chloro-8-fluoro-2-(((2R,7aS)-2-fluorotetra-hydro-1H-pyrrolizin-7a(5H)-yl)methoxy)quinazolin-4-yl)azepan-4-ol] |  |  | < 0.5 | < 0.5
8 | Cc1ccc2oc(N)nc2c1-c1c(Cl)cc2c(N3CCNCC(F)(F)C3)nc(OC[C@@]34CCCN3C[C@H](F)C4)nc2c1F [Compound 463, 4-(6-chloro-4-(6,6-difluoro-1,4-diazepan-1-yl)-8-fluoro-2-(((2R,7aS)-2-fluorotetra-hydro-1H-pyrrolizin-7a(5H)-yl)methoxy)quinazolin-7-yl)-5-methylbenzo[d]oxazol-2-amine] |  |  | < 0.5 | < 0.5
9 | COc1nc2c(N3C[C@H]4CC[C@@H](C3)N4)nc(OCC34CCCN3CCC4)nc2cc1-c1cc(O)cc2ccccc12 [Compound 545, 4-(4-((1R,5S)-3,8-diazabicyclo[3.2.1]octan-3-yl)-6-methoxy-2-((tetrahydro-1H-pyrrolizin-7a(5H)-yl)methoxy)pyrido[3,2-d]pyrimidin-7-yl)naphthalen-2-ol] |  |  | > 0.5 | > 0.5
10 | Nc1nc2c(-c3c(Cl)cc4c(N5CC6CCNCC6C5)nc(OC[C@@]56CCCN5C[C@H](F)C6)nc4c3F)ccc(F)c2s1 (stereo partly drawn) [Compound 566, 4-(6-chloro-8-fluoro-2-(((2R,7aS)-2-fluorotetra-hydro-1H-pyrrolizin-7a(5H)-yl)methoxy)-4-(octahydro-2H-pyrrolo[3,4-c]pyridin-2-yl)quinazolin-7-yl)-7-fluoro-benzo[d]thiazol-2-amine] |  |  | < 0.5 | > 0.5
11 | Nc1nc2c(-c3c(Cl)cc4c(N5CC6CCC(C5)N6)nc(OC[C@@]56CCCN5C[C@H](F)C6)nc4c3F)cc(Cl)cc2s1 [Compound 601, 4-(4-(3,8-diazabicyclo-[3.2.1]octan-3-yl)-6-chloro-8-fluoro-2-(((2R,7aS)-2-fluorotetrahydro-1H-pyrrol-izin-7a(5H)-yl)methoxy)-quinazolin-7-yl)-6-chloro-benzo[d]thiazol-2-amine] |  |  | < 0.5 | > 0.5
12 | COc1nc2c(N3CC4CCC(C3)N4)nc(OCC34CCCN3CCC4)nc2cc1-c1cccc2cccc(Cl)c12 [Compound 544, 4-(3,8-diazabicyclo[3.2.1]-octan-3-yl)-7-(8-chloronaph-thalen-1-yl)-6-methoxy-2-((tetrahydro-1H-pyrrolizin-7a(5H)-yl)methoxy)pyrido-[3,2-d]pyrimidine] |  |  | > 0.5 | > 0.5
13 | Nc1nc2c(-c3c(Cl)cc4c(N5CCCC(CO)CC5)nc(OC[C@@]56CCCN5C[C@H](F)C6)nc4c3F)ccc(F)c2s1 (stereo partly drawn) [Compound 485, (1-(7-(2-amino-7-fluoro-benzo[d]thiazol-4-yl)-6-chloro-8-fluoro-2-(((2R,7aS)-2-fluorotetra-hydro-1H-pyrrolizin-7a(5H)-yl)methoxy)quinazolin-4-yl)azepan-4-yl)methanol] |  |  | < 0.5 | < 0.5
14 | N#CCN1C2CCC1CN(c1nc(OC[C@@]34CCCN3C[C@H](F)C4)nc3c(F)c(-c4ccc(F)c5sc(N)c(C#N)c45)c(Cl)cc13)C2 [Compound 570, 2-amino-4-(6-chloro-4-((1R,5S)-8-(cyanomethyl)-3,8-diazabicyclo[3.2.1]-octan-3-yl)-8-fluoro-2-(((2R,7aS)-2-fluorotetra-hydro-1H-pyrrolizin-7a(5H)-yl)methoxy)quinazolin-7-yl)-7-fluorobenzo[b]thio-phene-3-carbonitrile] |  |  | < 0.5 | > 0.5
15 | CN1C[C@H](F)C[C@H]1COc1nc(N2CCNCC(F)(F)C2)c2cc(Cl)c(-c3cccc4sc(N)nc34)c(F)c2n1 [Compound 146, 4-(6-chloro-4-(6,6-difluoro-1,4-diazepan-1-yl)-8-fluoro-2-(((2S,4R)-4-fluoro-1-methylpyrrolidin-2-yl)meth-oxy)quinazolin-7-yl)benzo-[d]thiazol-2-amine] | < 0.5 | < 0.5 |  | 
16 | Fc1c(N2CCCc3cccc(Cl)c32)cc(Cl)c2c(N3CCCCCC3)nc(OCC34CCCN3CCC4)nc12 [Compound 467, 4-(azepan-1-yl)-5-chloro-7-(8-chloro-3,4-dihydroquin-olin-1(2H)-yl)-8-fluoro-2-((tetrahydro-1H-pyrrolizin-7a(5H)-yl)methoxy)quin-azoline] |  |  | > 0.5 | < 0.5
17 | CN1CCC[C@H]1COc1nc(N2CCCC(F)C(F)C2)c2cc(Cl)c(-c3cccc4sc(N)nc34)c(F)c2n1 (stereo partly drawn) [Compound 573, 4-(6-chloro-4-(3,4-difluoro-azepan-1-yl)-8-fluoro-2-(((S)-1-methylpyrrolidin-2-yl)methoxy)quinazolin-7-yl)-benzo[d]thiazol-2-amine] |  |  | < 0.5 | > 0.5
18 | Cc1ccnc(C(C)C)c1-n1c(=O)nc(N2CC3CCC(C2)N3)c2cc(F)c(-c3c(O)cccc3F)nc21 [Compound 687, 4-(3,8-diazabicyclo[3.2.1]-octan-3-yl)-6-fluoro-7-(2-fluoro-6-hydroxyphenyl)-1-(2-isopropyl-4-methylpyr-idin-3-yl)pyrido[2,3-d]pyr-imidin-2(1H)-one] |  |  | > 0.5 | > 0.5
19 | CN1CCC[C@H]1COc1nc(N2CCCC(C(N)=O)CC2)c2cc(Cl)c(-c3cccc4sc(N)nc34)c(F)c2n1 (stereo partly drawn) [Compound 427, 1-(7-(2-aminobenzo[d]-thiazol-4-yl)-6-chloro-8-fluoro-2-(((S)-1-methylpyr-rolidin-2-yl)methoxy)quin-azolin-4-yl)azepane-4-carboxamide] |  |  | < 0.5 | < 0.5
20 | Cc1ccc2[nH]nc(N)c2c1-c1ccc2c(N3CC4CCC(C3)N4)nc(OC[C@@]34CCCN3C[C@H](F)C4)nc2c1F [Compound 703, 4-(4-(3,8-diazabicyclo-[3.2.1]octan-3-yl)-8-fluoro-2-(((2R,7aS)-2-fluorotetra-hydro-1H-pyrrolizin-7a(5H)-yl)methoxy)quinazolin-7-yl)-5-methyl-1H-indazol-3-amine] |  |  | > 0.5 | > 0.5
21 | Cc1ccc(C2(N)CC2)cc1-c1c(Cl)cc2c(N3CC4CCC(C3)N4)nc(OCC34CCCN3CCC4)nc2c1F [Compound 661, 1-(3-(4-(3,8-diazabicyclo-[3.2.1]octan-3-yl)-6-chloro-8-fluoro-2-((tetrahydro-1H-pyrrolizin-7a(5H)-yl)meth-oxy)quinazolin-7-yl)-4-methylphenyl)cyclopropan-1-amine] |  |  | > 0.5 | > 0.5
22 | Nc1nc2c(-c3c(Cl)cc4c(N5CCOCC(O)C5)nc(OCC56CCCN5C[C@H](F)C6)nc4c3F)ccc(F)c2s1 (stereo partly drawn) [Compound 160, 4-(7-(2-amino-7-fluoro-benzo[d]thiazol-4-yl)-6-chloro-8-fluoro-2-(((2R)-2-fluorotetrahydro-1H-pyrrol-izin-7a(5H)-yl)methoxy)-quinazolin-4-yl)-1,4-oxazepan-6-ol] | > 0.5 | < 0.5 |  | 
23 | Nc1nc2c(-c3c(Cl)cc4c(N5CCCOCC5)nc(OC[C@@]56CCCN5C[C@H](F)C6)nc4c3F)cccc2o1 [Compound 167] | < 0.5 | < 0.5 |  | 
